Broadly, the GI50 is the concentration giving 50% growth inhibition. High values mean lower sensitivity of the cells, low ones greater sensitivity of the cells. For orientation: melting point means the temperature of the solid-liquid transition. What is called solubility is the concentration that dissolves in the medium under given conditions. Low values mean little dissolved substance, high ones much dissolved substance.

Data set [1] deals with tumor cell A549. Put plainly: Tumor cell inhibition, Cell Titer-Glo cell viability. It counts as cell-based. The note with it: Homo sapiens, A549 cells, 72 h. On the procedure:
The activities of example compounds to tumor cell A549 were evaluated.
Experimental materials: DMEM high-glucose cell culture media (Hyclone Company), fetal calf serum (FBS) (Gibco Company), penicillin and streptomycin were purchased from North China Pharmaceutical Co., Ltd, phosphate buffer saline (PBS) was purchased from Gibco Company, Cell Titer-Glo® cell viability detection reagent was purchased from Promega Company, pancreatin and dimethylsulfoxide (DMSO) were products of Sigma Company. A549 cell line (human lung adenocarcinoma cell line) was purchased from ATCC.
(§1) The cells were inoculated on a 96-well plate with white wall and penetrative bottom (Costar) in amount of 5000 cells per well, cultured at condition of 37° C., 5% CO2 for 24 h. The compounds to be tested were dissolved with DMSO and diluted to 100 mM, to obtain mother liquids of the compounds.
DMEM culture solution containing 2% FBS was used to diluted the compounds, in which concentration gradients were 3, and concentration range was 100 μM to 3 nM. The compounds in various dilution degrees were added to the cultured cells on the 96-well plate, 100 μl per well. Culture was performed at 37° C., CO2 for 72 h, supernatant was discarded, and cell viability detection test was performed.
(§2) AfterCell Titer-Glo® reaction buffer solution was mixed with isometric substrate, the mixture was added to 96-well plate, 100 μl per well. Cell lysis was induced by horizontally shaking for 4 min. Reaction signal was stabilized by balancing at room temperature for 15 min. Chemiluminescence units in each well of the 96-well plate were detected by using chemiluminescence detector.
Inhibition rates at different dilution degrees of each compound were calculated according to chemiluminescence value of each well, and Origin 8.0 software was used for S-type curve fitting of each compound, and for calculating EC50 value.
For orientation: Cellular ATP, detected with luciferase, serves as a proxy for viable cell number.

Data set [2] is described as follows: Toxicity on rat primary hepatocytes (ATP detection). The following applies: SD, ATP detection reagent. In kind it is cell-based. On the procedure:
Experimental method: Liver lobes of SD rat were placed in sterilized plate, added with a suitable amount of liver cell cleaning solution (precooled at 4° C.), the liver was shredded and fibrous connective tissues were removed to form a liver cell suspension, screened with 200 mesh screen and placed in 50 ml centrifuge tube, centrifuged at 500 rpm for 1-2 min; the supernatant was removed, the precipitate was added with 20-30 ml of RPMI […] (precooled at 4° C.) and washed 3 times; isovolumetric liver cell suspension was taken and suspended in Percoll separating solution I, mixed by turning upside down, centrifuged at 4° C. and 800 rpm for 10 min, the supernatant was discarded, the liver cells were washed with PBS once (800 rpm, 5 min). The liver cell precipitate was added into liver cell culture fluid, resuspended and diluted to 10 ml, and a suitable amount thereof was taken for counting and survival rate was determined by using 0.4% trypan blue. The liver cells with survival rate of 90% or more were inoculated in a density of 2×10^3 on 96-well plate, 100 μl of RPMI 1640 culture medium was added to each well, culture was performed at 37° C., 5% CO2 for 24 h. The compounds were diluted with DMSO to desired concentrations and added to each well in an amount of 1 μl (final compound concentrations were usually initiated from 1000 μM, 10× gradient dilution, 6 gradients), and blank control was added with 1 μl of DMSO.
After the cells were cultured at 37° C., 5% CO2 for 24 h, 100 μl of ATP detection reagent was added, incubated under shock for 15 min. fluorescence values of wells were read by ELIASA. Cell survival rates for each example compounds were calculated, and then GIs values (concentrations of added compounds at which growth of 50% cells was inhibited) were calculated.

In data set [3] the test system is multi-drug resistant tumor cell line MES-SA. Put plainly: Inhibition of drug-resistant tumor cell line, Cell Titer-Glo cell viability; therapeutic index against MRC5 cells. In kind it is cell-based. The following applies: Homo sapiens, 72 h. The method, then: The activity of example compounds to multi-drug resistant tumor cell line MES-SA was evaluated.
Experimental materials: DMEM high-glucose cell culture media (Hyclone Company), fetal calf serum (FBS) (Gibco Company), penicillin and streptomycin were purchased from North China Pharmaceutical Co., Ltd, phosphate buffer saline (PBS) was purchased from Gibco Company, Cell Titer-Glo® cell viability detection reagent was purchased from Promega Company, pancreatin and dimethylsulfoxide (DMSO) were products of Sigma Company. MES-SA cell line (human uterine sarcoma cell line) was purchased from ATCC. MRC5 cell (human embryonic lung fibroblast) was purchased from ATCC.
as §1
DMEM culture solution containing 2% FBS was used to diluted the compounds, in which concentration gradients were 3, and concentration range was 100 μM to 0.046 μM. The compounds in various dilution degrees were added to the cultured cells on the 96-well plate, 100 μl per well. Culture was performed at 37° C., CO2 for 72 h, supernatant was discarded, and cell viability detection test was performed.
as §2
Inhibition rates at different dilution degrees of each compound were calculated according to chemiluminescence value of each well, and Origin 8.0 software was used for S-type curve fitting of each compound, and for calculating EC50 value. The ratio of EC50 value of compound for MRC5 cell to EC50 value of compound for MES-SA cell was used as therapeutic index for the compound.

The target in data set [4] is mTORC1 (Homo sapiens, UniProt P42345). Put plainly: Inhibition of mTORC1 in A549 cells: phosphorylation of Thr389 of S6K1 by Western blot. It counts as cell-based. The following applies: compound 20 μM with insulin 167 nM, 2 h, semi-quantitative. In general terms: Immunoblotting shows a protein as a band on a membrane.
Source text: Molecular mechanism of action of the example compounds in tumor cell A549.
Experimental materials: DMEM high-glucose cell culture media (Hyclone Company), fetal calf serum (FBS) (Gibco Company), penicillin and streptomycin were purchased from North China Pharmaceutical Co., Ltd, phosphate buffer saline (PBS) was purchased from Gibco Company, pancreatic enzyme and dimethylsulfoxide (DMSO) were products of Sigma Company. A549 cell line (human lung adenocarcinoma cell line) was purchased from ATCC. Mouse anti-human p-p70S6K(T389) monoclonal antibody was purchased from Cell Signaling Technology Company, mouse anti-human p70S6K monoclonal antibody was purchased from Cell Signaling Technology Company, mouse anti-human p-AKT (S473) monoclonal antibody was purchased from Cell Signaling Technology Company, mouse anti-human AKTmonoclonal antibody was purchased from Cell Signaling Technology Company. Horseradish peroxidase-labeled goat anti-mouse, goat anti-mouse monoclonal antibodies were purchased from Cell Signaling Technology Company. […]
Data set [5] deals with T cell proliferation. The note with it: read-out: Median inhibitory concentration (IC50), T cell proliferation; cited from earlier work.
For data set [6], the system named is renal cell carcinoma (RCC). The following applies: early RCC patients; cited from earlier work.
The subject of data set [7] is metastatic soft-tissue or bone sarcomas. The following applies: phase-III; cited from earlier work.
The nature of data set [8]: Solubility test (Chinese Pharmacopoeia 2010, Part II). In kind it is physicochemical. The note with it: water, thermodynamic from solid.
The conditions of data set [9]: cited from earlier work.

A value given as a limit tells only on which side of the number the result lay.

`CO[C@H]1C[C@@H]2CC[C@@H](C)[C@@](O)(O2)C(=O)C(=O)N2CCCC[C@H]2C(=O)O[C@H]([C@H](C)C[C@@H]2CC[C@@H](O)[C@H](OC)C2)CC(=O)[C@H](C)/C=C(\C)[C@@H](OC(=O)C[n+]2ccc(C)cc2)[C@@H](OC)C(=O)[C@H](C)C[C@H](C)/C=C/C=C/C=C/1C.[Br-]` [Example 17, 31-O-carbonylmethyl-(4-methyl-pyridine bromide salt-1-yl)-rapamycin]: the melting point was 145 to 148 °C. Besides, in data set [1], the IC50 is 40.8 µM. The GI50 at 24 h in [2] worked out at 54.3 µM. The molecule also gave an IC50 in [3] of under 0.046 µM.
In turn, `CO[C@H]1C[C@@H]2CC[C@@H](C)[C@@](O)(O2)C(=O)C(=O)N2CCCC[C@H]2C(=O)O[C@H]([C@H](C)C[C@@H]2CC[C@@H](OC(=O)C[n+]3ccc(C)cc3)[C@H](OC)C2)CC(=O)[C@H](C)/C=C(\C)[C@@H](O)[C@@H](OC)C(=O)[C@H](C)C[C@H](C)/C=C/C=C/C=C/1C.[Br-]` [Example 13, 42-O-carbonylmethyl-(4-methyl-pyridine bromide salt-1-yl)-rapamycin] came in with a melting point of 157 to 160 °C. The molecule also registered an IC50 in data set [1] of 44.8 µM. Moreover, the GI50 at 24 h in data set [2] was determined as 44.9 µM. The IC50 in data set [3] was under 0.046 µM.
The corresponding values for `CO[C@H]1C[C@@H]2CC[C@@H](C)[C@@](O)(O2)C(=O)C(=O)N2CCCC[C@H]2C(=O)O[C@H]([C@H](C)C[C@@H]2CC[C@@H](OC(=O)C[n+]3cccc(C)c3)[C@H](OC)C2)CC(=O)[C@H](C)/C=C(\C)[C@@H](O)[C@@H](OC)C(=O)[C@H](C)C[C@H](C)/C=C/C=C/C=C/1C.[Br-]` [Example 11, 42-O-carbonylmethyl-(3-methyl-pyridine bromide salt-1-yl)-rapamycin] are 138 to 140 °C, 52.8 µM, 71.8 µM and under 0.046 µM.
On to `CO[C@H]1C[C@@H]2CC[C@@H](C)[C@@](O)(O2)C(=O)C(=O)N2CCCC[C@H]2C(=O)O[C@H]([C@H](C)C[C@@H]2CC[C@@H](O)[C@H](OC)C2)CC(=O)[C@H](C)/C=C(\C)[C@@H](O)[C@@H](OC)C(=O)[C@H](C)C[C@H](C)/C=C/C=C/C=C/1C` [Rapamycin, reference compound], for which the IC50 is 49.4 µM in data set [1] and under 0.046 µM in [3]. In data set [2], this molecule displayed a GI50 at 24 h of 24.8 µM. Besides, in data set [4], the “Inhibition of mTORC1 (phosphorylation of Thr389 of S6K1)” value is “could only inhibit mTORC1”.
As to `CO[C@H]1C[C@@H]2CC[C@@H](C)[C@@](O)(O2)C(=O)C(=O)N2CCCC[C@H]2C(=O)O[C@H]([C@H](C)C[C@@H]2CC[C@@H](OC(=O)C(C)(CO)CO)[C@H](OC)C2)CC(=O)[C@H](C)/C=C(\C)[C@@H](O)[C@@H](OC)C(=O)[C@H](C)C[C@H](C)/C=C/C=C/C=C/1C` [Temsirolimus], the IC50 in data set [5] is 0.0008 µM. Further, the “Extension of median survival time” value in [6] was 3-6 months.
Consider `CO[C@H]1C[C@@H]2CC[C@@H](C)[C@@](O)(O2)C(=O)C(=O)N2CCCC[C@H]2C(=O)O[C@H]([C@H](C)C[C@@H]2CC[C@@H](OP(C)(C)=O)[C@H](OC)C2)CC(=O)[C@H](C)/C=C(\C)[C@@H](O)[C@@H](OC)C(=O)[C@H](C)C[C@H](C)/C=C/C=C/C=C/1C` [Ridaforolimus], for which the “Mortality risk reduction in comparison with placebo group” value in data set [7] is 28%.
`CO[C@H]1C[C@@H]2CC[C@@H](C)[C@@](O)(O2)C(=O)C(=O)N2CCCC[C@H]2C(=O)O[C@H]([C@H](C)C[C@@H]2CC[C@@H](OC(=O)C[n+]3cccc(C)c3)[C@H](OC)C2)CC(=O)[C@H](C)/C=C(\C)[C@@H](OC(=O)C[n+]2cccc(C)c2)[C@@H](OC)C(=O)[C@H](C)C[C@H](C)/C=C/C=C/C=C/1C.[Br-].[Br-]` [Example 9, 31,42-O-carbonylmethyl-(3-methyl-pyridine bromide salt-1-yl)-rapamycin]: the melting point lay in the range of 159 to 162 °C. In addition, in data set [8], the solubility was determined as 47 mg/mL. The molecule further came in with an IC50 in data set [1] of 25.1 µM. The same molecule displayed an IC50 in data set [3] of 7.21 µM.
Turning to `CO[C@H]1C[C@@H]2CC[C@@H](C)[C@@](O)(O2)C(=O)C(=O)N2CCCC[C@H]2C(=O)O[C@H]([C@H](C)C[C@@H]2CC[C@@H](OCCO)[C@H](OC)C2)CC(=O)[C@H](C)/C=C(\C)[C@@H](O)[C@@H](OC)C(=O)[C@H](C)C[C@H](C)/C=C/C=C/C=C/1C` [Everolimus, 42-O-(2-hydroxyethyl)-rapamycin], in [9] (in human body), the Half-life was 16 to 19 h. The Oral bioavailability in data set [9] (oral) was 15%-30%.

The values are drawn from US10160767B2 (Institute of Pharmacology and Toxicology Academy of …, priority 2014, dated 2018).
